According to US20250332173A1, “COMPOUNDS AND METHODS FOR MODULATING NUCLEIC ACID SPLICING” (REMIX THERAPEUTICS INC., priority 2021, published 2025):
Like-named read-outs stand apart in the source and are kept apart here.

Legend:
HTT mRNA = assay: RT-qPCR splicing assay, HTT canonical junction (CJ) and alternative junction (AJ) mRNA; type: cell-based, human; conditions: Homo sapiens; for AC50: increase in HTT alternative junction (AJ) mRNA, read-out: HTT AJ AC50
In short: (§1)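 A673 or K562 cells were treated for 24 h at 37 °C with an 11-point 3-fold compound dilution series (top final concentration 10 uM, DMSO ≤0.25%). After lysis, one-step TaqMan RT-qPCR quantified junction transcripts, normalized to PPIA for A673 or to GAPDH/GUSB for K562.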

MYB mRNA = assay: RT-qPCR splicing assay, MYB canonical junction (CJ) and alternative junction (AJ) mRNA; type: cell-based, human; conditions: Homo sapiens; for AC50: increase in MYB alternative junction (AJ) mRNA, read-out: MYB AJ AC50
In short: as §1

SMN2 mRNA = assay: RT-qPCR splicing assay, SMN2 canonical junction (CJ) mRNA; type: cell-based, human; conditions: Homo sapiens; canonical junction qPCR panel, Table 5; read-out: SMN2 (decrease in CJ mRNA levels, IC50)
In short: (§2)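 Read-out is canonical exon-exon junction mRNA quantified by RT-qPCR against a GAPDH, GUSB or PPIA control. Cells (A673 or K562) received compound for 24 h, top final dose 10 uM in an 11-point 3-fold series.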

Target C = assay: RT-qPCR splicing assay panel, Target C canonical junction (CJ) mRNA; type: cell-based, human; conditions: Homo sapiens; canonical junction qPCR panel, Table 5; read-out: Target C (decrease in CJ mRNA levels, IC50)
In short: as §2

[1] = tested on: K562 (human chronic myelogenous leukemia) cells; assay: Cell Titer Glo 2.0 cell viability assay; type: cell-based; conditions: Homo sapiens, K562, 72 h, K562 cells, 72 hours, Cell Titer Glo 2.0; read-out: K562 GI50
[2] = decrease in HTT canonical junction (CJ) mRNA, RT-qPCR, read-out: HTT CJ IC50
[3] = canonical junction qPCR panel, Table 5, read-out: HTT (decrease in CJ mRNA levels, IC50)
[4] = canonical junction qPCR panel, Table 5, read-out: MYB (decrease in CJ mRNA levels, IC50)
[5] = decrease in MYB canonical junction (CJ) mRNA, RT-qPCR, read-out: MYB CJ IC50

Row | SMILES | IC50 (HTT mRNA; [2]) | IC50 (HTT mRNA; [3]) | IC50 (MYB mRNA; [4]) | IC50 (MYB mRNA; [5]) | IC50 (SMN2 mRNA) | IC50 (Target C) | GI50 [1] | AC50 (HTT mRNA; RT-qPCR) | AC50 (MYB mRNA; RT-qPCR)
1 | Cc1cn2nc(-c3ccc4c(=O)n(C5CCNC6(CC6)C5)ncc4n3)cc2c(C)n1 (stereo not drawn) [Compound 1547, 6-(4-azaspiro[2.5]octan-7-yl)-2-(4,6-dimethylpyrazolo[1,5-a]pyrazin-2-yl)pyrido[2,3-d]pyridazin-5-one] | 1 to 10 µM | 0.1 to 1 µM | 1 to 10 µM | 1 to 10 µM | 0.1 to 1 µM | 1 to 10 µM | 1 to 10 µM | 0.1 to 1 µM | 1 to 10 µM
2 | Cc1cn2nc(-c3ccc4c(=O)n([C@H]5CCN[C@@H](C6CC6)C5)ncc4n3)cc(C)c2n1 [Compound 1550] | 0.1 to 1 µM | 0.1 to 1 µM | 0.1 to 1 µM | 0.1 to 1 µM | 0.1 to 1 µM | 0.1 to 1 µM | 1 to 10 µM | 0.1 to 1 µM | 0.1 to 1 µM
3 | Cc1cn2nc(-c3ccc4c(=O)n([C@@H]5CCN[C@@H](C6CC6)C5)ncc4n3)cc(C)c2n1 [Compound 1551] | 0.1 to 1 µM | 0.1 to 1 µM | 0.1 to 1 µM | 0.1 to 1 µM | < 0.1 µM | 0.1 to 1 µM | 0.1 to 1 µM | 0.1 to 1 µM | 0.1 to 1 µM
4 | CN1CCN(c2ccc3ncn(-c4cc(F)c5nn(C)cc5c4)c(=O)c3c2)CC1 [Compound 2194] | 1 to 10 µM | 1 to 10 µM | 1 to 10 µM | 1 to 10 µM | 1 to 10 µM | 1 to 10 µM | 1 to 10 µM | 1 to 10 µM | 1 to 10 µM

Now from value to molecule, other results behind:

Row | IC50 (HTT mRNA; [2]) | IC50 (HTT mRNA; [3]) | IC50 (MYB mRNA; [4]) | IC50 (MYB mRNA; [5]) | IC50 (SMN2 mRNA) | IC50 (Target C) | GI50 [1] | SMILES | AC50 (HTT mRNA; RT-qPCR) | AC50 (MYB mRNA; RT-qPCR)
5 | 0.1 to 1 µM | 0.1 to 1 µM | 0.1 to 1 µM | 0.1 to 1 µM | 0.1 to 1 µM | 0.1 to 1 µM | 0.1 to 1 µM | Cc1cn2nc(-c3ccc4c(=O)n([C@H]5CCNC6(CCC6)C5)ncc4n3)cc(C)c2n1 [Compound 1544, 6-[(8S)-5-azaspiro[3.5]nonan-8-yl]-2-(2,8-dimethylimidazo[1,2-b]pyridazin-6-yl)pyrido[2,3-d]pyridazin-5-one] | 0.1 to 1 µM | 0.1 to 1 µM
6 | 0.1 to 1 µM | 0.1 to 1 µM | 0.1 to 1 µM | 0.1 to 1 µM | 0.1 to 1 µM | 0.1 to 1 µM | 0.1 to 1 µM | Cc1cn2nc(-c3ccc4c(=O)n([C@@H]5CCNC6(CC6)C5)ncc4n3)cc2c(C)n1 [Compound 1548, 6-[(7R)-4-azaspiro[2.5]octan-7-yl]-2-(4,6-dimethylpyrazolo[1,5-a]pyrazin-2-yl)pyrido[2,3-d]pyridazin-5-one] | 0.1 to 1 µM | 0.1 to 1 µM
7 | 0.1 to 1 µM | 0.1 to 1 µM | 1 to 10 µM | 1 to 10 µM | 0.1 to 1 µM | 1 to 10 µM | 1 to 10 µM | Cc1cn2nc(-c3ccc4c(=O)n([C@H]5CCNC6(CC6)C5)ncc4n3)cc2c(C)n1 [Compound 1549, 6-[(7S)-4-azaspiro[2.5]octan-7-yl]-2-(4,6-dimethylpyrazolo[1,5-a]pyrazin-2-yl)pyrido[2,3-d]pyridazin-5-one] | 0.1 to 1 µM | 1 to 10 µM
